Source: patent publication USRE48711E1, “Apoptosis signal-regulating kinase inhibitors” (Gilead Sciences, Inc., priority 2009, dated 2021)
Read-outs that look alike come from different tables or passages of the source.

Molecular target: ASK1 (Apoptosis Signal-Regulating Kinase 1) (Homo sapiens (Human), UniProt Q99683)
Assay: ASK1 (Apoptosis Signal-Regulating Kinase 1) TR-FRET Kinase Assay (Biochemical IC50)
[1] = TR-FRET, biotin-MBP substrate, 20 min pre-incubation, ATP added as 300 μM solution

ASK1 (Apoptosis Signal-Regulating Kinase 1), sequence (Q99683 649-946): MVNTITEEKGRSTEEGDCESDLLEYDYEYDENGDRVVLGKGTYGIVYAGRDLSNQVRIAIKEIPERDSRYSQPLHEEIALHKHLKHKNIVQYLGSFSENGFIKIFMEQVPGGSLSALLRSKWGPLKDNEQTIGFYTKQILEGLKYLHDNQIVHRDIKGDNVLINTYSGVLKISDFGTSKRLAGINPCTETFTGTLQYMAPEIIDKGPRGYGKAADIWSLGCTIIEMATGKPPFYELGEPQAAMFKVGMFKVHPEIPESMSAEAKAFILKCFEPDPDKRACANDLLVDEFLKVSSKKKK

Row | IC50 [1] [nM] | IC50 [nM] | SMILES
1 | 14 | – | Cc1cc(-c2ccc(C3CC3)nc2)cc(C(=O)Nc2cccc(-c3nncn3C3CC3)n2)n1 [Example 233, 6-cyclopropyl-N-(6-(4-cyclopropyl-4H-1,2,4-triazol-3-yl)pyridin-2-yl)-6′-methyl-3,4′-bipyridine-2′-carboxamide]
2 | 8 | – | COC[C@H](C)n1cnnc1-c1cccc(NC(=O)c2cc(-c3ccc(C4CC4)nc3)ccn2)n1 [Example 234, (S)-6-cyclopropyl-N-(6-(4-(1-methoxypropan-2-yl)-4H-1,2,4-triazol-3-yl)pyridin-2-yl)-3,4′-bipyridine-2′-carboxamide]
3 | 15 | – | COC(c1cn(-c2cccc(C(=O)Nc3cccc(-c4nncn4C4CC4)n3)c2)cn1)C(F)(F)F (stereo not drawn) [Example 235, N-(6-(4-cyclopropyl-4H-1,2,4-triazol-3-yl)pyridin-2-yl)-3-(4-(2,2,2-trifluoro-1-methoxyethyl)-1H-imidazol-1-yl)benzamide]
4 | 139 | – | Cc1ccc2c(-c3ccc(C4CC4)nc3)cc(C(=O)Nc3cccc(-c4nncn4C4CC4)n3)nc2c1C [Example 236, N-(6-(4-cyclopropyl-4H-1,2,4-triazol-3-yl)pyridin-2-yl)-4-(6-cyclopropylpyridin-3-yl)-7,8-dimethylquinoline-2-carboxamide]
5 | 38 | – | CC[C@H](C)n1cnnc1-c1cccc(NC(=O)c2cc(-c3ccc(C4CC4)nc3)ccn2)c1 [Example 237, (S)-N-(3-(4-sec-butyl-4H-1,2,4-triazol-3-yl)phenyl)-6-cyclopropyl-3,4′-bipyridine-2′-carboxamide]
6 | 6 | – | CC(C)[C@H](C)n1cnnc1-c1cccc(NC(=O)c2cc(-c3ccc(C4CC4)nc3)ccn2)c1 [Example 238, (S)-6-cyclopropyl-N-(3-(4-(3-methylbutan-2-yl)-4H-1,2,4-triazol-3-yl)phenyl)-3,4′-bipyridine-2′-carboxamide]
7 | 10900 | – | Cc1cccc(C)c1OC[C@H](C)n1cnnc1-c1cccc(NC(=O)c2cc(-c3ccc(C4CC4)nc3)ccn2)c1 [Example 239, (S)-6-cyclopropyl-N-(3-(4-(1-(2,6-dimethylphenoxy)propan-2-yl)-4H-1,2,4-triazol-3-yl)phenyl)-3,4′-bipyridine-2′-carboxamide]
8 | – | 222 | Cc1ccc2c(-c3ccc(C4CC4)nc3)cc(C(=O)Nc3cccc(-c4nncn4C4CC4)c3)nc2c1C [Example 240, N-(3-(4-cyclopropyl-4H-1,2,4-triazol-3-yl)phenyl)-4-(6-cyclopropylpyridin-3-yl)-7,8-dimethylquinoline-2-carboxamide]
9 | 616 | – | CN1CCC(n2cnnc2-c2cccc(NC(=O)c3cc(-c4ccc(C5CC5)nc4)ccn3)n2)CC1 [Example 241, 6-cyclopropyl-N-(6-(4-(1-methylpiperidin-4-yl)-4H-1,2,4-triazol-3-yl)pyridin-2-yl)-3,4′-bipyridine-2′-carboxamide]
10 | 1130 | – | C[C@H](n1cnnc1-c1cccc(NC(=O)c2cc(-c3ccc(C4CC4)nc3)ccn2)c1)C(C)(C)C [Example 242, (S)-6-cyclopropyl-N-(3-(4-(3,3-dimethylbutan-2-yl)-4H-1,2,4-triazol-3-yl)phenyl)-3,4′-bipyridine-2′-carboxamide]
11 | 15 | – | CC(C)n1ccc2ncc(-c3ccnc(C(=O)Nc4cccc(-c5nncn5C5CC5)c4)c3)cc21 [Example 243, N-(3-(4-cyclopropyl-4H-1,2,4-triazol-3-yl)phenyl)-4-(1-isopropyl-1H-pyrrolo[3,2-b]pyridin-6-yl)picolinamide]
12 | 25 | – | O=C(Nc1cccc(-c2nncn2C2CC2)c1)c1cc(-c2cnc3ccn(CC(F)(F)F)c3c2)ccn1 [Example 244, N-(3-(4-cyclopropyl-4H-1,2,4-triazol-3-yl)phenyl)-4-(1-(2,2,2-trifluoroethyl)-1H-pyrrolo[3,2-b]pyridin-6-yl)picolinamide]
13 | 36 | – | CC(CN1CCCC1)n1cnnc1-c1cccc(NC(=O)c2cc(-c3ccc(C4CC4)nc3)ccn2)n1 (stereo not drawn) [Example 245, 6-cyclopropyl-N-(6-(4-(1-(pyrrolidin-1-yl)propan-2-yl)-4H-1,2,4-triazol-3-yl)pyridin-2-yl)-3,4′-bipyridine-2′-carboxamide]
14 | 6 | – | C[C@H](O)[C@H](C)n1cnnc1-c1cccc(NC(=O)c2cc(-c3ccc(C4CC4)nc3)ccn2)n1 [Example 246, 6-cyclopropyl-N-(6-(4-((2S,3S)-3-hydroxybutan-2-yl)-4H-1,2,4-triazol-3-yl)pyridin-2-yl)-3,4′-bipyridine-2′-carboxamide]
15 | 10 | – | C[C@@H](O)[C@H](C)n1cnnc1-c1cccc(NC(=O)c2cc(-c3ccc(C4CC4)nc3)ccn2)n1 [Example 247, 6-cyclopropyl-N-(6-(4-((2S,3R)-3-hydroxybutan-2-yl)-4H-1,2,4-triazol-3-yl)pyridin-2-yl)-3,4′-bipyridine-2′-carboxamide]
16 | 7 | – | CC(O)[C@@H](C)n1cnnc1-c1cccc(NC(=O)c2cc(-c3ccc(C4CC4)nc3)ccn2)n1 (stereo partly drawn) [Example 248, 6-cyclopropyl-N-(6-(4-((2R)-3-hydroxybutan-2-yl)-4H-1,2,4-triazol-3-yl)pyridin-2-yl)-3,4′-bipyridine-2′-carboxamide]
17 | 71 | – | Cc1cc(-c2ccc(C3CC3)nc2)cc(C(=O)Nc2cccc(-c3nncn3C3CC3)c2)n1 [Example 249, 6-cyclopropyl-N-(3-(4-cyclopropyl-4H-1,2,4-triazol-3-yl)phenyl)-6′-methyl-3,4′-bipyridine-2′-carboxamide]

Row | IC50 [1] [nM] | IC50 [nM] | SMILES
18 | 8 | – | Cc1cnc(C(=O)Nc2cccc(-c3nncn3C3CC3)c2)cc1-c1ccc(C2CC2)nc1 [Example 250, 6-cyclopropyl-N-(3-(4-cyclopropyl-4H-1,2,4-triazol-3-yl)phenyl)-5′-methyl-3,4′-bipyridine-2′-carboxamide]
19 | 7 | – | COc1ccc2ncc(-c3ccnc(C(=O)Nc4cccc(-c5nncn5C5CC5)c4)c3)cc2c1 [Example 251, N-(3-(4-cyclopropyl-4H-1,2,4-triazol-3-yl)phenyl)-4-(6-methoxyquinolin-3-yl)picolinamide]
20 | 3410 | – | CC(O)c1nnc(-c2ccnc(C(=O)Nc3cccc(-c4nncn4C4CC4)c3)c2)o1 (stereo not drawn) [Example 252, N-(3-(4-cyclopropyl-4H-1,2,4-triazol-3-yl)phenyl)-4-(5-(1-hydroxyethyl)-1,3,4-oxadiazol-2-yl)picolinamide]
21 | 3490 | – | Cc1noc(-c2ccnc(C(=O)Nc3cccc(-c4nncn4C4CC4)c3)c2)n1 [Example 253, N-(3-(4-cyclopropyl-4H-1,2,4-triazol-3-yl)phenyl)-4-(3-methyl-1,2,4-oxadiazol-5-yl)picolinamide]
22 | 1270 | – | O=C(Nc1cccc(-c2nncn2C2CC2)c1)c1cc(-c2nc(C3CC3)no2)ccn1 [Example 254, 4-(3-cyclopropyl-1,2,4-oxadiazol-5-yl)-N-(3-(4-cyclopropyl-4H-1,2,4-triazol-3-yl)phenyl)picolinamide]
23 | 685 | – | Cn1c(-c2ccnc(C(=O)Nc3cccc(-c4nncn4C4CC4)c3)c2)nnc1C1CC1 [Example 255, 4-(5-cyclopropyl-4-methyl-4H-1,2,4-triazol-3-yl)-N-(3-(4-cyclopropyl-4H-1,2,4-triazol-3-yl)phenyl)picolinamide]
24 | 4 | – | CN1CCc2c(ncn2-c2ccnc(C(=O)Nc3cccc(-c4nncn4C4CC4)n3)c2)C1C(F)(F)F (stereo not drawn) [Example 256, N-(6-(4-cyclopropyl-4H-1,2,4-triazol-3-yl)pyridin-2-yl)-4-(5-methyl-4-(trifluoromethyl)-4,5,6,7-tetrahydro-1H-imidazo[4,5-c]pyridin-1-yl)picolinamide]
25 | 6 | – | CN1CCc2c(ncn2-c2ccnc(C(=O)Nc3cccc(-c4nncn4C4CC4)c3)c2)C1C(F)(F)F (stereo not drawn) [Example 257, N-(3-(4-cyclopropyl-4H-1,2,4-triazol-3-yl)phenyl)-4-(5-methyl-4-(trifluoromethyl)-4,5,6,7-tetrahydro-1H-imidazo[4,5-c]pyridin-1-yl)picolinamide]
26 | 852 | – | O=C(Nc1cccc(-c2nncn2C2CC2)n1)c1cccc(-c2ccc(C3CC3)nc2)n1 [Example 258, 6′-cyclopropyl-N-(6-(4-cyclopropyl-4H-1,2,4-triazol-3-yl)pyridin-2-yl)-2,3′-bipyridine-6-carboxamide]
27 | 8 | – | O=C(Nc1cccc(-c2nncn2C2CC2)n1)c1cncc(-c2ccc(C3CC3)nc2)c1 [Example 259, 6′-cyclopropyl-N-(6-(4-cyclopropyl-4H-1,2,4-triazol-3-yl)pyridin-2-yl)-3,3′-bipyridine-5-carboxamide]
28 | 30 | – | O=C(Nc1cccc(-c2nncn2C2CC2)n1)c1ccnc(-c2ccc(C3CC3)nc2)c1 [Example 260, 6′-cyclopropyl-N-(6-(4-cyclopropyl-4H-1,2,4-triazol-3-yl)pyridin-2-yl)-2,3′-bipyridine-4-carboxamide]
29 | 3600 | – | O=C(Nc1cccc(-c2nncn2C2CC2)c1)c1cccc(-c2ccc(C3CC3)nc2)n1 [Example 263, 6′-cyclopropyl-N-(3-(4-cyclopropyl-4H-1,2,4-triazol-3-yl)phenyl)-2,3′-bipyridine-6-carboxamide]
30 | 23 | – | CC(C)[C@H](C)n1cnnc1-c1cccc(NC(=O)c2cc(-n3cnc(C4CC4)c3)ccn2)c1 [Example 264, (S)-4-(4-cyclopropyl-1H-imidazol-1-yl)-N-(3-(4-(3-methylbutan-2-yl)-4H-1,2,4-triazol-3-yl)phenyl)picolinamide]
31 | 27 | – | O=C(Nc1cccc(-c2nncn2C2CC2)n1)c1cc(-c2ccc(C3CC3)nc2)c(Cl)cc1F [Example 265, 4-chloro-N-(6-(4-cyclopropyl-4H-1,2,4-triazol-3-yl)pyridin-2-yl)-5-(6-cyclopropylpyridin-3-yl)-2-fluorobenzamide]
32 | 425 | – | O=C(Nc1cccc(-c2nncn2C2CC2c2ccccc2)c1)c1cc(-c2ccc(C3CC3)nc2)ccn1 (stereo not drawn) [Example 267, 6-cyclopropyl-N-(3-(4-(2-phenylcyclopropyl)-4H-1,2,4-triazol-3-yl)phenyl)-3,4′-bipyridine-2′-carboxamide]
33 | 13 | – | O=C(Nc1cccc(-c2nncn2C2CC2)c1)c1cc(-c2ccc(CC3CC3)nc2)ccn1 [Example 268, N-(3-(4-cyclopropyl-4H-1,2,4-triazol-3-yl)phenyl)-6-(cyclopropylmethyl)-3,4′-bipyridine-2′-carboxamide]
